Data from ChEMBL document CHEMBL1201862, “PubChem BioAssay data set” (2004).
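96-well plates; 48 h exposure; 5 concentrations. Endpoints by linear interpolation between flanking doses. Not reached: highest tested concentration assigned. At the GI50, growth is halved.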 Calls of active or inactive are those of the source. Rule as the data show it: active = GI50 up to about 1.1 µM and inactive = higher.

Experiments:
Assay in all cases: inhibition of tumour cell growth, NCI panel, 48 h
ACHN = tested on: ACHN
COLO 205 = tested on: COLO 205
HCT-116 = tested on: HCT-116
HOP-92 = tested on: HOP-92
HT-29 = tested on: HT-29
K562 = tested on: K562
LOX IMVI = tested on: LOX IMVI
M14 = tested on: M14
MDA-MB-231 = tested on: MDA-MB-231
MOLT-4 = tested on: MOLT-4
NCI/ADR-RES = tested on: NCI/ADR-RES
OVCAR-5 = tested on: OVCAR-5
SK-OV-3 = tested on: SK-OV-3
SNB-19 = tested on: SNB-19
SR = tested on: SR
SW-620 = tested on: SW-620
U-251 = tested on: U-251
NCI-H23 = tested on: NCI-H23
A498 = tested on: A498

Measured: GI50

O=c1oc2ccccc2cc1-c1nc2ccccc2c(=O)[nH]1
inactive: ACHN 90.8 µM | COLO 205 > 100 µM | HCT-116 > 100 µM | HOP-92 > 100 µM | HT-29 > 100 µM | K562 > 100 µM | LOX IMVI > 100 µM | M14 > 100 µM | MDA-MB-231 > 100 µM | MOLT-4 > 100 µM | NCI/ADR-RES > 100 µM | OVCAR-5 > 100 µM | SK-OV-3 > 100 µM | SNB-19 > 100 µM | SR > 100 µM | SW-620 > 100 µM | U-251 50.4 µM

C/C1=C\CC[C@@]2(C)O[C@@H]2[C@H]2OC(=O)C(C)C2C[C@H]1O (stereo partly specified)
inactive: ACHN > 100 µM | COLO 205 > 100 µM | HCT-116 > 100 µM | HOP-92 > 100 µM | HT-29 > 100 µM | K562 > 100 µM | LOX IMVI > 100 µM | M14 > 100 µM | MDA-MB-231 > 100 µM | MOLT-4 > 100 µM | NCI-H23 > 100 µM | NCI/ADR-RES > 100 µM | OVCAR-5 > 100 µM | SK-OV-3 > 100 µM | SNB-19 > 100 µM | SR > 100 µM | SW-620 > 100 µM | U-251 > 100 µM

Clc1ccc(Cl)c(SCCCN2CCNCC2)c1
inactive: A498 13.7 µM | ACHN 15.1 µM | COLO 205 16.2 µM | HCT-116 18.3 µM | HOP-92 15 µM | HT-29 14.6 µM | K562 14.6 µM | LOX IMVI 14.9 µM | M14 17.3 µM | MDA-MB-231 15 µM | MOLT-4 17.1 µM | NCI-H23 19.4 µM | NCI/ADR-RES 17.3 µM | OVCAR-5 15.5 µM | SK-OV-3 15.1 µM | SNB-19 16.9 µM | SW-620 22.3 µM | U-251 16.4 µM

COC1=C(OC)C(=O)C(Cc2c(Cl)nc3sccn23)=C(C)C1=O
inactive: A498 12.8 µM | ACHN 12.4 µM | COLO 205 15.7 µM | HCT-116 13.6 µM | HT-29 14.6 µM | K562 11 µM | LOX IMVI 2.96 µM | M14 11.7 µM | MDA-MB-231 2.38 µM | MOLT-4 1.85 µM | NCI-H23 5.36 µM | NCI/ADR-RES 5.89 µM | OVCAR-5 16.9 µM | SK-OV-3 10.1 µM | SNB-19 13.5 µM | SR 5.04 µM | SW-620 13.7 µM | U-251 12.6 µM

O=C1CCCCN1C(=O)c1ccc([N+](=O)[O-])cc1
inactive: A498 > 100 µM | ACHN > 100 µM | HCT-116 > 100 µM | HOP-92 > 100 µM | HT-29 > 100 µM | K562 > 100 µM | LOX IMVI > 100 µM | M14 > 100 µM | MDA-MB-231 > 100 µM | MOLT-4 > 100 µM | NCI-H23 > 100 µM | NCI/ADR-RES > 100 µM | OVCAR-5 > 100 µM | SNB-19 > 100 µM | SR > 100 µM | SW-620 > 100 µM | U-251 > 100 µM

Nc1ncc(C=O)c(NCC2(CO)CCC2)n1
inactive: A498 26.3 µM | COLO 205 28.4 µM | HCT-116 36.6 µM | HOP-92 14.5 µM | HT-29 64 µM | K562 36.4 µM | LOX IMVI 32.1 µM | MDA-MB-231 45.8 µM | MOLT-4 30.5 µM | NCI-H23 33.5 µM | NCI/ADR-RES 65.9 µM | OVCAR-5 44.8 µM | SR 18 µM | SW-620 89.9 µM | U-251 35.6 µM

COc1ccc(NC(C)=O)cc1C1CCC(=O)N1 (stereo unspecified)
inactive: A498 > 100 µM | ACHN > 100 µM | COLO 205 > 100 µM | HCT-116 > 100 µM | HOP-92 > 100 µM | HT-29 > 100 µM | K562 > 100 µM | LOX IMVI > 100 µM | M14 > 100 µM | MDA-MB-231 > 100 µM | MOLT-4 > 100 µM | NCI-H23 > 100 µM | NCI/ADR-RES > 100 µM | OVCAR-5 > 100 µM | SK-OV-3 > 100 µM | SNB-19 > 100 µM | SW-620 > 100 µM | U-251 > 100 µM

CO/N=C1/C(n2[nH]c(=O)n(-c3ccccc3)c2=O)C2C=CC1n1c(=O)n(-c3ccccc3)c(=O)n12 (stereo unspecified)
inactive: A498 > 100 µM | COLO 205 > 100 µM | HCT-116 > 100 µM | HT-29 > 100 µM | K562 > 100 µM | LOX IMVI > 100 µM | M14 > 100 µM | MDA-MB-231 > 100 µM | MOLT-4 > 100 µM | NCI-H23 > 100 µM | NCI/ADR-RES > 100 µM | OVCAR-5 > 100 µM | SK-OV-3 > 100 µM | SNB-19 > 100 µM | SR > 100 µM | SW-620 > 100 µM | U-251 > 100 µM

CN(C)c1cccc(NC2=NCCO2)c1
inactive: A498 74.5 µM | ACHN 90.4 µM | COLO 205 20.6 µM | HCT-116 35.9 µM | HOP-92 12.2 µM | HT-29 19.2 µM | K562 30.8 µM | LOX IMVI 31.9 µM | M14 37.5 µM | MDA-MB-231 51.4 µM | MOLT-4 46.7 µM | NCI-H23 23.6 µM | NCI/ADR-RES 39.7 µM | OVCAR-5 > 100 µM | SNB-19 52.8 µM | SR 30.3 µM | SW-620 57.7 µM | U-251 83.8 µM

CNc1nc(N)c(N=O)c(Nc2ccc(Br)cc2)n1
inactive: ACHN 53.2 µM | COLO 205 > 100 µM | HCT-116 > 100 µM | HT-29 > 100 µM | K562 > 100 µM | LOX IMVI > 100 µM | MDA-MB-231 > 100 µM | MOLT-4 68.4 µM | NCI-H23 > 100 µM | NCI/ADR-RES > 100 µM | OVCAR-5 > 100 µM | SNB-19 > 100 µM | SR > 100 µM | SW-620 > 100 µM | U-251 61.8 µM

COc1ncc(/C=C2\OC(=O)c3ccccc32)c(OC)n1
inactive: A498 12.3 µM | ACHN 24.4 µM | COLO 205 > 100 µM | HCT-116 > 100 µM | HOP-92 47.5 µM | HT-29 64.6 µM | K562 29.2 µM | LOX IMVI 7.16 µM | M14 72.3 µM | MDA-MB-231 > 100 µM | MOLT-4 41 µM | NCI-H23 > 100 µM | NCI/ADR-RES 40.5 µM | OVCAR-5 > 100 µM | SNB-19 26.5 µM | SR 30.1 µM | SW-620 > 100 µM | U-251 13.6 µM

C=CN(C=C)C(=O)Cn1cc(-c2ccccc2)nn1
inactive: ACHN > 100 µM | COLO 205 > 100 µM | HCT-116 > 100 µM | HOP-92 > 100 µM | HT-29 > 100 µM | K562 > 100 µM | LOX IMVI > 100 µM | M14 > 100 µM | MDA-MB-231 > 100 µM | MOLT-4 > 100 µM | NCI-H23 > 100 µM | NCI/ADR-RES > 100 µM | OVCAR-5 > 100 µM | SNB-19 > 100 µM | SR > 100 µM | SW-620 > 100 µM | U-251 > 100 µM
